A short description of series [1]: Limit of solubility (in ACSF perfusion). Type of series: physicochemical. The conditions noted are these: artificial cerebral spinal fluid (ACSF), aqueous buffer, kinetic from dmso stock.
Series [2] has as its target cytosolic testosterone receptor (Homo sapiens, UniProt P10275). The series is described as follows: Radioligand binding, testosterone receptor. The note with it: read-out: inhibition of binding of a reference ligand.
For series [3], the system named is Swiss Webster mice. Kind of series: PTZ Proconvulsant test. The conditions noted are these: doses of 30 mg/kg or less, p.o. It counts as in vivo. The method, then: Follow on studies of CX717 and 1739 are continuing, employing additional well-known models for ADHD drug efficacy, coupled with a variety of ongoing safety studies. Preliminary safety studies already completed have included a range of toxicity studies focusing on critical convulsant risks widely observed for previously-studied ampakines. Using the well known PTZ Proconvulsant test, non-GLP safety studies were conducted to examine proconvulsant activity of CX717. Swiss Webster mice (n=12/group) were dosed with CX717 (3, 10 or 30 mg/kg p.o.), vehicle (0.5% methocel p.o.) or a positive control, CGS8216 (10 mg/kg in 70% PEG300: 30% water i.p.). Thirty minutes later, the GABA-A antagonist, pentylenetetrazol (PTZ) was infused in the tail vein until tonic seizures were observed. The time at which the first clonic and tonic seizure was observed was noted and used to determine the dose of PTZ necessary to induce both clonic and tonic seizure.

Series [4] has as its target acetylcholine esterase (Homo sapiens, UniProt P22303). Kind of series: Acetylcholine esterase functional inhibition. It counts as biochemical.
In series [5] the test system is Male Sprague-Dawley rats. Kind of series: Spontaneous locomotor activity (LMA) and rearing in rats. It counts as in vivo. The method, then: Behavioral tests of locomotor activity were conducted to determine the effects of exemplary low impact ampakines CX717 and CX1739 on normal, and amphetamine-stimulated activity in animal behavioral models. […] Male Sprague-Dawley rats (175-200 g; Charles River Laboratories) were given ad libitum food and water and maintained on a 12:12 hr light: dark cycle with lights on at 6:00 a.m. Each of ten test cages (standard polycarbonate animal cage; 26 cm×48 cm×20 cm; W×L×H) were surrounded by two photo beam arrays, placed to detect locomotor activity with a lower array and rearing behavior with an upper array. Locomotor and rearing activity were continuously monitored and recorded by computer for all ten test cages (Photo beam Activity System, San Diego Instruments, San Diego, Calif.). The test period was chosen as the 1st few hours of the dark period of the light: dark cycle. Approximately 15 min before the start of the dark cycle, the rats were removed from the housing facility, transported to the testing room and injected with CX717, CX1739 or vehicle and placed into photo beam activity cages. Immediately after all rats were injected the room lights were turned off and spontaneous activity data were collected for the next four hours. CX717 and CX1739 groups (0.1 to 10 mg/kg) were compared to the vehicle group.

Series [6] deals with adult patients with ADHD. Kind of series: Phase 2 randomized, double-blind, 2-period crossover trial in adults with ADHD. Type of series: in vivo. The method, then: *This phase 2 study evaluated the efficacy, tolerability and safety of CX717 in the treatment of adult patients with ADHD. The study was designed and executed as a randomized, double-blind, multi-center, 2-period crossover study comparing 2 doses of CX717 (200 mg, or 800 mg, BID) with placebo. Each treatment period lasted 3 weeks with a 2-week washout in between. Subjects met DSM-IV criteria for adult ADHD and had moderate to severe symptoms. The primary efficacy measure was the change from baseline on the ADHD Rating Scale (ADHD-RS) with adult ADHD prompts.
The present study further examined the clinical efficacy, tolerability and safety of CX717 as a drug treatment for adults with ADHD. […] Each treatment period was 3 weeks in duration with a 2-week washout in between. The study design was modeled after several similarly published ADHD studies with atomoxetine and stimulants, (Spencer et al.) with sample sizes in the mid 20s. Since this is the first such study with CX7171 in ADHD, it is assumed that efficacy would be achieved using historical assumptions in effect size, therefore, a total of 60 subjects were to be randomized.
All patients met DSM-IV criteria for adult ADHD, established by the Adult ADHD Clinical Diagnostic Scale (ACDS) Version 1.2. All patients gave written informed consent prior to enrollment and the conduct of the study was approved by either the […] Review Board (IRB) at each site or by the central IRB. Each subject had at least moderately severe ADHD symptoms (ADHD-RS score of ≥22; Clinician's Global Impression of Severity [CGI-S] score of ≥4). Each subject was male, and between 18-50 years old, inclusively. Male patients were selected because the necessary reproductive toxicology studies that would have allowed women of childbearing potential to be included in the study had not been completed.
CX717 capsules were administered orally as 200 mg BID or 800 mg BID doses. […] The study was divided into a series of periods: screening period—up to 4 weeks, treatment period 1-3 weeks; wash-out period—2 weeks; treatment period 2-3 weeks; follow-up period—approximately 1 week.
The primary efficacy outcome measure was the comparison of each dose of CX717 versus placebo on the change from baseline in ADHD symptoms as measured by the ADHD-RS at Week 3. Secondary efficacy parameters included comparisons of each dose of CX717 versus placebo for the ADHD-RS Inattentiveness Subscale Score of the ADHD-RS.
Safety was evaluated by adverse events (AEs), clinical laboratory tests, vital signs, physical examination, and electrocardiograms (ECGs).
The primary efficacy endpoint was the change from baseline in the ADHD-RS total score. Variables for the primary endpoint as well as for the secondary endpoint were based on within patient comparisons of high dose with placebo and low dose with placebo. The analyses treated subjects receiving high dose or placebo in either order as a unique entity and similarly, subjects who received low dose or placebo in either order as a unique group of its own. The primary efficacy analysis utilized the paired t-test. Descriptive statistics (number of observations, mean, standard deviation, median, minimum and maximum values) for the total score and the change from baseline were calculated by treatment group and visit and the last value was presented for both the intent-to-treat (ITT) and per protocol (PP) populations. All hypotheses testing for change from Baseline of scores, except testing for significant interaction, were performed at the 2-tailed 5% alpha significance level. P-values, based on 2-tailed tests, were rounded to 1 more decimal place than the standard deviation, up to a maximum of 3 decimal places; p-values <0.001 were presented as ‘<0.001’ in all tables.

Results on two molecules are retold here after patent US20210340130A1, “Compositions and methods for treating attention deficit disorders” (priority 2016, published 2021).

SMILES strings stand for the structures. Converted amounts (≈) assume the structure as drawn. Where two headings read alike, the source gives them in different places.

The solubility is the dissolved amount per volume that the medium holds. In general, inhibition refers to the drop in the measured response relative to a control, in per cent. As usually defined, the Ki is the equilibrium dissociation constant of an inhibitor or competing ligand from its target. Read a low Ki as tighter binding.

acetylcholine esterase, sequence (P22303 32-614): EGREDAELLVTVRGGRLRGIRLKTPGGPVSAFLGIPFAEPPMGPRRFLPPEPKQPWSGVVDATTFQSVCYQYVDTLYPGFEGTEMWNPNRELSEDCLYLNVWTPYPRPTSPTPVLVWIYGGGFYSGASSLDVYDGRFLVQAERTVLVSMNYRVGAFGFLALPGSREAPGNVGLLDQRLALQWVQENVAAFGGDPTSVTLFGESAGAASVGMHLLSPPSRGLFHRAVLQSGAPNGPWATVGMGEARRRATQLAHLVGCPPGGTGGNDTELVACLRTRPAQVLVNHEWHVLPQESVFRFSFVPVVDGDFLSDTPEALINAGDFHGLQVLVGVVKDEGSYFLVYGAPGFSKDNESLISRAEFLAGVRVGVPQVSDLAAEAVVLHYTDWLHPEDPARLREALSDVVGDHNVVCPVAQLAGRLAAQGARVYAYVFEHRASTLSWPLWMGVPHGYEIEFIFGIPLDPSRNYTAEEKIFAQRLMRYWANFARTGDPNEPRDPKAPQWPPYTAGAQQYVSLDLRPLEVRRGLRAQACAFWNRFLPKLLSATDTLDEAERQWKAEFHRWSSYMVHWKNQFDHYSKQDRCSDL
cytosolic testosterone receptor, sequence (P10275 whole entry): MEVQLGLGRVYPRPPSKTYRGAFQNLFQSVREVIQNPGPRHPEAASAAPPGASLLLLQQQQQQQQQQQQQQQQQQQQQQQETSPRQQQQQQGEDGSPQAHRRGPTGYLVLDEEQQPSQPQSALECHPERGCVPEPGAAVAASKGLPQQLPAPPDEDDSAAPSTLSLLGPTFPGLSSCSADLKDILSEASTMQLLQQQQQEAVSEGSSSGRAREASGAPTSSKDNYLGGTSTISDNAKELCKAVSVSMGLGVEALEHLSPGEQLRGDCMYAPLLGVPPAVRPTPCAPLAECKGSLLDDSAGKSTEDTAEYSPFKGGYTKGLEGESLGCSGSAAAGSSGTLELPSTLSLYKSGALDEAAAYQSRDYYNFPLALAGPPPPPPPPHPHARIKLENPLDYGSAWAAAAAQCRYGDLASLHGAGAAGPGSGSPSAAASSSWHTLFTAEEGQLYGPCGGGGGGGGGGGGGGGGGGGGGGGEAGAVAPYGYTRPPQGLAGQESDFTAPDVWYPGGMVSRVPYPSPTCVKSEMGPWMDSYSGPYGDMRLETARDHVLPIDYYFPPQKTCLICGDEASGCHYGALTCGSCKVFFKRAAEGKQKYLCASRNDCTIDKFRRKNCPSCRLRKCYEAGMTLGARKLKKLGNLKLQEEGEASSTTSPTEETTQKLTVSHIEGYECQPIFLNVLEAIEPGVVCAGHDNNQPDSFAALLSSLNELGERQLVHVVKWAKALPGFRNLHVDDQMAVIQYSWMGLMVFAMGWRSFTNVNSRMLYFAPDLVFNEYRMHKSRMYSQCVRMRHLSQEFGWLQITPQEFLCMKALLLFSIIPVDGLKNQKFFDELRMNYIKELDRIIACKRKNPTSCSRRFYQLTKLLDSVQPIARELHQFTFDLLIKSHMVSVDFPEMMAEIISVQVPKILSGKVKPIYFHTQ

Turning to `CN(C(=O)c1ccc2nonc2c1)C1CCOCC1` [CX1739, N-Methyl-N-tetrahydro-2H-pyran-4-yl-[2,1,3]-benzoxadiazole-5-carboxamide], the solubility was 200 µM (≈ 52.3 µg/mL) in series [1] (read-out: limit of solubility) and around 200 µM (≈ 52.3 µg/mL) in series [1] (read-out: limit of the drug's solubility). The inhibition at 100 µM in series [2] was 64%.

Take `O=C(c1ccc2nonc2c1)N1CCOCC1` [CX717, 1-(benzofurazan-5-ylcarbonyl)morpholine]: in series [3], the “proconvulsant activity: dose of PTZ required to elicit a seizure” value is recorded as “did not decrease the dose of PTZ required to elicit a seizure”. The Ki in series [4] was found to be 165 µM. This molecule had an inhibition at 100 µM in series [4] (100 μM) of 53%. The spontaneous rearing entry in series [5] (10 mg/kg vs. vehicle, p<0.01) was “significant decrease”. In addition, the “pharmacodynamics of the effect on rearing behavior” value in series [5] (10 mpk, 1, 2, 3 and 4 hours post treatment) is “prolonged action”. The spontaneous locomotor activity result in series [5] (first hour following ip administration, ANOVA=0.45) was “no effect”. Further, the “ADHD-RS total and subscales versus placebo” value in series [6] (200 mg BID) is on record as “no statistically significant differences”. The “deaths or serious adverse events” value in series [6] (200 mg or 800 mg BID for 3 weeks) is on record as “No deaths or serious adverse events”. The “total ADHD-RS, repeated measures analysis at endpoint” value in series [6] (800 mg BID vs placebo, p=0.002) is recorded as “superior efficacy compared to placebo”. For the same molecule, in series [6] (800 mg BID vs placebo, p=0.017), the “ADHD-RS hyperactivity subscale, repeated measures analysis” value was “superior efficacy compared to placebo”. In series [6] (800 mg BID vs placebo, p=0.027), the “ADHD-RS inattentiveness subscale, repeated measures analysis” value is given as “superior efficacy compared to placebo”. Besides, in series [6] (800 mg, 504 h), the “mean change from baseline of ADHR-RS total score” value is −9.95. For the same molecule, the “ADHD-RS hyperactivity subscale mean difference vs placebo” value in series [6] (active dose vs. placebo, last value) was found to be 1.94; in series [6] (high dose, Week 1), 2.00; in series [6] (high dose, Week 3), 3.18; in series [6] (high dose, last value), 3.00. Also, the “tolerability and safety parameters” value in series [6] (either dose (200 mg or 800 mg BID), 3 weeks) is “well tolerated with no clinically significant changes in cardiovascular and other safety parameters”. The “overall incidence of treatment-emergent adverse events (TEAEs)” value in series [6] (high dose (800 mg BID), placebo high dose 56%) worked out at 75%; in series [6] (low dose (200 mg BID), placebo low dose 55%), 73%. Further, the “ADHD-RS hyperactivity subscale mean score (change from baseline)” value in series [6] (high dose, Week 1, ITT, placebo −2.22, p=0.192) was −4.22; in series [6] (high dose, Week 3, ITT, placebo −2.78, p=0.050) it was −5.68. Besides, in series [6] (high dose, after 3 weeks), the “difference from placebo in mean change of ADHR-RS total score” value is on record as −4.73. For the same molecule, in series [6] (in vivo), the “most frequently reported adverse events” value is “Sleep disturbances and headache”. The “ADHD-RS hyperactivity subscale versus placebo, repeated measures” value in series [6] (low dose) was “No difference”. The “ADHD-RS total score versus placebo” value in series [6] (low dose (200 mg BID)) is recorded as “did not differ from placebo”.
